Laboratory results: patent US8871680B2, “Herbicidal compositions comprising 4-amino-3-chloro-5-fluoro-6-(4-chloro-2-fluoro-3-methoxyphenyl) pyridine-2-carboxylic acid or a derivative thereof and a di-methoxy-pyrimidine and derivatives thereof” (Dow AgroSciences LLC, priority 2012, dated 2014)

Legend:
BRAPP = experiment: Postemergence foliar-applied weed control, direct seeded rice (greenhouse); assay type: in vivo, Brachiaria platyphylla (Griseb.) Nash; settings: 4.38 gae/ha
Source text: Seeds or nutlets of the desired test plant species were planted in a soil matrix prepared by mixing a loam or sandy loam soil (e.g., 28.6 percent silt, 18.8 percent clay, and 52.6 percent sand, with a pH of about 5.8 and an organic matter content of about 1.8 percent) and calcareous grit in an 80 to 20 ratio. The soil matrix was contained in plastic pots with a volume of 1 quart and a surface area of 83.6 square centimeters (cm^2). When required to ensure good germination and healthy plants, a fungicide treatment and/or other chemical or physical treatment was applied. The plants were grown for 8-22 days in a greenhouse with an approximate 14 hr photoperiod which was maintained at about 29° C. during the day and 26° C. during the night. Nutrients (Peters Excel® 15-5-15 5-Ca 2-Mg and iron chelate) were applied in the irrigation solution as needed and water was added on a regular basis. Supplemental lighting was provided with overhead metal halide 1000-Watt lamps as necessary. The plants were employed for testing when they reached the first through fourth true leaf stage. […]
(§1) Treatment requirements were calculated based upon the rates being tested, the concentration of active ingredient or acid equivalent in the formulation, and a 12 mL application volume at a rate of 187 L/ha.
For treatments comprised of formulated compounds, measured amounts of compounds were placed individually in 25 mL glass vials and diluted in a volume of 1.25% (v/v) Agri-Dex® crop oil concentrated to obtain 12× stock solutions. […]
(§2) For treatments comprised of formulated and technical compounds, weighed amounts of the technical materials were placed individually in 25 mL glass vials and dissolved in a volume of 97:3 v/v acetone/DMSO to obtain 12× stock solutions, and measured amounts of the formulated compounds were placed individually in 25 mL glass vials and diluted in a volume of 1.5% (v/v) crop oil concentrate or water to obtain 12× stock solutions. […]

ECHCG = experiment: In-water applied weed control, transplanted paddy rice (greenhouse); assay type: in vivo, Echinochloa crusgalli (L.) Beauv.
Description: (§3) Weed seeds or nutlets of the desired test plant species were planted in puddled soil (mud) prepared by mixing a shredded, non-sterilized mineral soil (50.5 percent silt, 25.5 percent clay, and 24 percent sand, with a pH of about 7.6 and an organic matter content of about 2.9 percent) and water at a 1:1 volumetric ratio. The prepared mud was dispensed in 365 mL aliquots into 16-ounce (oz.) non-perforated plastic pots with a surface area of 86.59 square centimeters (cm^2) leaving a headspace of 3 centimeters (cm) in each pot. Mud was allowed to dry overnight prior to planting or transplanting. Rice seeds were planted in Sun Gro MetroMix® 306 planting mixture, which typically has a pH of 6.0 to 6.8 and an organic matter content of about 30 percent, in plastic plug trays. Seedlings at the second or third leaf stage of growth were transplanted into 860 mL of mud contained in 32-oz. non-perforated plastic pots with a surface area of 86.59 cm^2 4 days prior to herbicide application. The paddy was created by filling the headspace of the pots with 2.5 to 3 cm of water. When required to ensure good germination and healthy plants, a fungicide treatment and/or other chemical or physical treatment was applied. The plants were grown for 4-22 days in a greenhouse with an approximate 14 hr photoperiod which was maintained at about 29′C during the day and 26° C. during the night. Nutrients were added as Osmocote® (19:6:12, N:P:K+minor nutrients) at 2 g per 16-oz. pot and 4 g per 32-oz. pot. Water was added on a regular basis to maintain the paddy flood, and supplemental lighting was provided with overhead metal halide 1000-Watt lamps as necessary. The plants were employed for testing when they reached the first through fourth true leaf stage.
(§4) Treatments consisted of the acid or esters of 4-amino-3-chloro-5-fluoro-6-(4-chloro-2-fluoro-3-methoxy-phenyl)pyridine-2-carboxylic acid (compound A) each formulated as an SC and various herbicidal components alone and in combination. Forms of compound A were applied on an acid equivalent basis.
(§5) Other herbicidal components were applied on an active ingredient basis and included the dimethoxy-pyrimidine acid acetolactate synthase (ALS)-inhibiting herbicides bispyribac-sodium formulated as Regiment® 80 WP, pyriminobac-methyl formulated as Hie Clean®, and pyriftalid (technical grade material).
(§6) Treatment requirements for each compound or herbicidal component were calculated based upon the rates being tested, the concentration of active ingredient or acid equivalent in the formulation, an application volume of 2 mL per component per pot, and an application area of 86.59 cm^2 per pot.
(§7) For formulated compounds, a measured amount was placed in an individual 100 or 200 mL glass vial and was dissolved in a volume of 1.25% (v/v) Agri-Dex® crop oil concentrate to obtain application solutions.
(§8) For technical grade compounds, a weighed amount was placed in an individual 100 to 200 mL glass vial and was dissolved in a volume of acetone to obtain concentrated stock solutions. […] The concentrated stock solutions obtained were diluted with an equivalent volume of an aqueous mixture containing 2.5% (v/v) crop oil concentrate so that the final application solutions contained 1.25% (v/v) crop oil concentrate.
(§9) Applications were made by injecting with a pipetter appropriate amounts of the application solutions, individually and sequentially, into the aqueous layer of the paddy.
(§10) Control plants were treated in the same manner with the solvent blank. Applications were made so that all treated plant material received the same concentrations of acetone and crop oil concentrate.
(§11) The treated plants and control plants were placed in a greenhouse as described above and water was added as needed to maintain a paddy flood. […]

SCPMA = experiment: as above; assay type: in vivo, Bolboschoenus maritimus (L.) Palla
Description: as §3, §4, §5, §6, §7, §8, §9, §10, §11

LEFCH = experiment: as above; assay type: in vivo, Leptochloa chinensis (L.) Nees
Description: as §3, §4, §5, §6, §7, §8, §9
(§12) Control plants were treated in the same manner with the solvent blank. […]

CYPRO = experiment: as above; assay type: in vivo, Cyperus rotundus L.
Description: as §3, §4, §5, §6, §7, §8, §9, §10, §11

DIGSA = experiment: Postemergence foliar-applied weed control, direct seeded rice (greenhouse); assay type: in vivo, Digitaria sanguinalis (L.) Scop.
Source text: (§13) Seeds or nutlets of the desired test plant species were planted in a soil matrix prepared by mixing a loam or sandy loam soil (e.g., 28.6 percent silt, 18.8 percent clay, and 52.6 percent sand, with a pH of about 5.8 and an organic matter content of about 1.8 percent) and calcareous grit in an 80 to 20 ratio. The soil matrix was contained in plastic pots with a volume of 1 quart and a surface area of 83.6 square centimeters (cm^2). When required to ensure good germination and healthy plants, a fungicide treatment and/or other chemical or physical treatment was applied. The plants were grown for 8-22 days in a greenhouse with an approximate 14 hr photoperiod which was maintained at about 29° C. during the day and 26° C. during the night. Nutrients (Peters Excel® 15-5-15 5-Ca 2-Mg and iron chelate) were applied in the irrigation solution as needed and water was added on a regular basis. Supplemental lighting was provided with overhead metal halide 1000-Watt lamps as necessary. The plants were employed for testing when they reached the first through fourth true leaf stage.
as §4, with “(Compound A),” for “(compound A)”, “SC (suspension concentrate),” for “SC”
as §5, with “80WP, pyribenzoxim (technical grade material),” for “80 WP,”, “Hie-Clean® 1.2% GR dissolved in water,” for “Hie Clean®,”
as §1
(§14) For treatments comprised of formulated compounds, measured amounts of compounds were placed individually in 25 mL glass vials and diluted in a volume of 1.25% (v/v) Agri-Dex® crop oil concentrated to obtain 12× stock solutions. […] Application solutions were prepared by adding an appropriate amount of each stock solution (e.g., 1 mL) and diluted to the appropriate final concentrations with the addition of 10 mL of an aqueous mixture of 1.25% (v/v) crop oil concentrate so that the final spray solutions contained 1.25+/−0.005% (v/v) crop oil concentrate.
For treatments comprised of technical compounds, weighed amounts can be placed individually in 25 mL glass vials and dissolved in a volume of 97:3 v/v acetone/DMSO to obtain 12× stock solutions. […] Application solutions can be prepared by adding an appropriate amount of each stock solution (e.g., 1 mL) and diluted to the appropriate final concentrations with the addition of 10 mL of an aqueous mixture of 1.5% (v/v) crop oil concentrate so that the final spray solutions contain 1.25% (v/v) crop oil concentrate. […]
as §2

FIMMI = experiment: In-water applied weed control, transplanted paddy rice (greenhouse); assay type: in vivo, Fimbristylis miliacea (L.) Vahl
Description: as §3, §4, §5, §6, §7, §8, §9, §10, §11

ECHOR = experiment: as above; assay type: in vivo, Echinochloa oryzoides (Ard.) Fritsch; settings: 42.2 gae/ha
Description: as §3, §4, §5, §6, §7, §8, §9, §12

IPOHE = experiment: Postemergence foliar-applied weed control, direct seeded rice (greenhouse); assay type: in vivo, Ipomoea hederacea Jacq.
Source text: as §13
as §4, with “(Compound A),” for “(compound A)”, “SC (suspension concentrate),” for “SC”
as §5, with “80WP, pyribenzoxim (technical grade material),” for “80 WP,”, “Hie-Clean® 1.2% GR dissolved in water,” for “Hie Clean®,”
as §1, §14
For treatments comprised of technical compounds, weighed amounts can be placed individually in 25 mL glass vials and dissolved in a volume of 97:3 v/v acetone/DMSO to obtain 12× stock solutions. […] Application solutions can be prepared by adding an appropriate amount of each stock solution (e.g., 1 mL) and diluted to the appropriate final concentrations with the addition of 10 mL of an aqueous mixture of 1.5% (v/v) crop oil concentrate so that the final spray solutions contain 1.25% (v/v) crop oil concentrate. When technical materials are used, the concentrated stock solutions can be added to the spray solutions so that the final acetone and DMSO concentrations of the application solutions are 16.2% and 0.5%, respectively.
as §2

ECHCO = experiment: In-water applied weed control, transplanted paddy rice (greenhouse); assay type: in vivo, Echinochloa colona (L.) Link
Description: as §3, with “Water was added on a regular basis to maintain the paddy flood, and supplemental lighting was provided with overhead metal halide 1000-Watt lamps as necessary. The plants were employed for testing when they reached the first through fourth true leaf stage.” left out
as §6
For formulated compounds, a measured amount was placed in an individual 100 or 200 mL glass vial and was dissolved in a volume of 1.25% (v/v) Agri-Dex® crop oil concentrate to obtain application solutions. […]

Compound: COc1c(Cl)ccc(-c2nc(C(=O)O)c(Cl)c(N)c2F)c1F [Compound A Acid, 4-amino-3-chloro-6-(4-chloro-2-fluoro-3-methoxyphenyl)-5-fluoropyridine-2-carboxylic acid]
- Visual Weed Control (%)-22 DAA BRAPP Obs (BRAPP): 45%
- Visual Weed Control (%) - 20 DAA ECHCG Obs (ECHCG; 8.75 gae/ha): 0%
- Visual Weed Control (%) - 20 DAA ECHCG Obs (ECHCG; 17.5 gae/ha): 35%
- Visual Weed Control (%) - 20 DAA ECHCG Obs (ECHCG; 35 gae/ha): 55%
- Visual Weed Control (%) - 20 DAA ECHCG Obs (ECHCG; 42.2 gae/ha): 18%
- Visual Weed Control (%)-21 DAA SCPMA Obs (SCPMA; 8.75 gae/ha): 0%
- Visual Weed Control (%)-21 DAA SCPMA Obs (SCPMA; 17.5 gae/ha): 0%
- Visual Weed Control (%)-20 DAA SCPMA Obs (SCPMA; 35 gae/ha): 0%
- Visual Weed Control (%)-21 DAA SCPMA Obs (SCPMA; 35 gae/ha): 0%
- Visual Weed Control (%)-20 DAA SCPMA Obs (SCPMA; 42.2 gae/ha): 0%
- Visual Weed Control (%)-20 DAA SCPMA Obs (SCPMA; 70 gae/ha): 0%
- Visual Weed Control (%)-21 DAA LEFCH Obs (LEFCH; 8.75 gae/ha): 0%
- Visual Weed Control (%)-21 DAA LEFCH Obs (LEFCH; 17.5 gae/ha): 0%
- Visual Weed Control (%)-20 DAA LEFCH Obs (LEFCH; 42.2 gae/ha): 15%
- Visual Weed Control (%)-21 DAA CYPRO Obs (CYPRO; 8.75 gae/ha): 30%
- Visual Weed Control (%)-21 DAA CYPRO Obs (CYPRO; 17.5 gae/ha): 40%
- Visual Weed Control (%)-21 DAA CYPRO Obs (CYPRO; 35 gae/ha): 70%
- Visual Weed Control (%)-24 DAA DIGSA Obs (DIGSA; 4.38 gae/ha): 20%
- Visual Weed Control (%)-24 DAA DIGSA Obs (DIGSA; 8.75 gae/ha): 25%
- Visual Weed Control (%)-24 DAA DIGSA Obs (DIGSA; 17.5 gae/ha): 25%
- Visual Weed Control (%)-21 DAA FIMMI Obs (FIMMI; 8.75 gae/ha): 50%
- Visual Weed Control (%)-21 DAA FIMMI Obs (FIMMI; 17.5 gae/ha): 85%
- Visual Weed Control (%)-21 DAA FIMMI Obs (FIMMI; 35 gae/ha): 85%
- Visual Weed Control (%)-20 DAA ECHOR Obs (ECHOR): 18%
- Visual Weed Control (%)-24 DAA IPOHE Obs (IPOHE; 4.38 gae/ha): 10%
- Visual Weed Control (%)-24 DAA IPOHE Obs (IPOHE; 8.75 gae/ha): 10%
- Visual Weed Control (%)-24 DAA IPOHE Obs (IPOHE; 17.5 gae/ha): 30%
- Visual Weed Control (%)-24 DAA IPOHE Obs (IPOHE; 17.5 gae/ha, second part of Table 3): 25%
- Visual Weed Control (%)-24 DAA IPOHE Obs (IPOHE; 35 gae/ha, second part of Table 3): 48%
- Visual Weed Control (%)-21 DAA ECHCO Obs (ECHCO; 8.75 gae/ha): 0%
- Visual Weed Control (%)-21 DAA ECHCO Obs (ECHCO; 17.5 gae/ha): 20%
